target: PD-1/PD-L1 protein/protein interaction (Homo sapiens (Human), UniProt Q9NZQ7); experiment: PD-1/PD-L1 Homogeneous Time-Resolved Fluorescence (HTRF) Binding Assay; details: recombinant human PD-L1 (19-238) His-tag, human PD-1 (25-167) Fc tag; 25° C., PBS pH 7.4
Method: Example A. PD-1/PD-L1 Homogeneous Time-Resolved Fluorescence (HTRF) Binding Assay
The assays were conducted in a standard black 384-well polystyrene plate with a final volume of 20 μL. Inhibitors were first serially diluted in DMSO and then added to the plate wells before the addition of other reaction components. The final concentration of DMSO in the assay was 1%. The assays were carried out at 25° C. in the PBS buffer (pH 7.4) with 0.05% Tween-20 and 0.1% BSA. Recombinant human PD-L1 protein (19-238) with a His-tag at the C-terminus was purchased from AcroBiosystems (PD1-H5229). Recombinant human PD-1 protein (25-167) with Fc tag at the C-terminus was also purchased from AcroBiosystems (PD1-H5257). PD-L1 and PD-1 proteins were diluted in the assay buffer and 10 μL was added to the plate well. Plates were centrifuged and proteins were preincubated with inhibitors for 40 minutes. The incubation was followed by the addition of 10 μL of HTRF detection buffer supplemented with Europium cryptate-labeled anti-human IgG (PerkinElmer-AD0212) specific for Fc and anti-His antibody conjugated to SureLight®-Allophycocyanin (APC, PerkinElmer-AD0059H). After centrifugation, the plate was incubated at 25° C. for 60 min. before reading on a PHERAstar FS plate reader (665 nm/620 nm ratio). Final concentrations in the assay were […], 10 nM PD-L1, 1 nM europium anti-human IgG and 20 nM anti-His-Allophycocyanin. IC50 determination was performed by fitting the curve of percent control activity versus the log of the inhibitor concentration using the GraphPad Prism 5.0 software.
Data obtained for the Example compounds using the PD-1/PD-L homogenous time-resolved fluorescence (HTRF) binding assay described in Example A is provided in Table 1.

PD-1/PD-L1 protein/protein interaction, sequence (Q9NZQ7 19-238): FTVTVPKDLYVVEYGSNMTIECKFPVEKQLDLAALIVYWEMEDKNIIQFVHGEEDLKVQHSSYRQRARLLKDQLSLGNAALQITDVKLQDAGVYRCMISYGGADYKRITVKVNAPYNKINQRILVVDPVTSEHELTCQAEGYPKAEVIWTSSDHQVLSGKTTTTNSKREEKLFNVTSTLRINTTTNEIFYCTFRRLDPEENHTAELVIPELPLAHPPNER

IC50	SMILES
≤ 0.1 µM	Cc1c(C2=CCCCC2)cccc1-c1nc2c(s1)CNCC2 [Example 32, 2-(3-cyclohex-1-en-1-yl-2-methylphenyl)-4,5,6,7-tetrahydro[1,3]thiazolo[5,4-c]pyridine]
≤ 0.1 µM	CCOc1cccc(-c2cccc(-c3nc4c(s3)CNCC4)c2C)c1 [Example 33, 2-(3′-ethoxy-2-methylbiphenyl-3-yl)-4,5,6,7-tetrahydro[1,3]thiazolo[5,4-c]pyridine]
≤ 0.1 µM	COc1cc(OC)cc(-c2cccc(-c3nc4c(s3)CNCC4)c2C)c1 [Example 34, 2-(3′,5′-dimethoxy-2-methylbiphenyl-3-yl)-4,5,6,7-tetrahydro[1,3]thiazolo[5,4-c]pyridine]
0.1 to 0.5 µM	N#Cc1c(-c2ccc3c(c2)OCCO3)ccnc1-c1nc2c(s1)CNCC2 [Example 35, 4-(2,3-dihydro-1,4-benzodioxin-6-yl)-2-(4,5,6,7-tetrahydro[1,3]thiazolo[5,4-c]pyridin-2-yl)nicotinonitrile]
0.1 to 0.5 µM	Cc1c(-c2cccc(OCCO)c2)cccc1-c1nc2c(s1)CNCC2 [Example 36, 2-{[2′-methyl-3′-(4,5,6,7-tetrahydro[1,3]thiazolo[5,4-c]pyridin-2-yl)biphenyl-3-yl]oxy}ethanol]
≤ 0.1 µM	COc1cc(OC)c(F)c(-c2cccc(-c3nc4c(s3)CNCC4)c2C)c1F [Example 37, 2-(2′,6′-difluoro-3′,5′-dimethoxy-2-methylbiphenyl-3-yl)-4,5,6,7-tetrahydro[1,3]thiazolo[5,4-c]pyridine]
≤ 0.1 µM	Cc1c(-c2cccc(C(N)=O)c2)cccc1-c1nc2c(s1)CNCC2 [Example 38, 2′-methyl-3′-(4,5,6,7-tetrahydro[1,3]thiazolo[5,4-c]pyridin-2-yl)biphenyl-3-carboxamide]
≤ 0.1 µM	Cc1c(-c2cccc(CC(N)=O)c2)cccc1-c1nc2c(s1)CNCC2 [Example 39, 2-[2′-methyl-3′-(4,5,6,7-tetrahydro[1,3]thiazolo[5,4-c]pyridin-2-yl)biphenyl-3-yl]acetamide]
≤ 0.1 µM	Cc1c(-c2nc3c(s2)CNCC3)cccc1-c1cccc2c1cnn2C [Example 40, 2-[2-methyl-3-(1-methyl-1H-indazol-4-yl)phenyl]-4,5,6,7-tetrahydro[1,3]thiazolo[5,4-c]pyridine]

— patent US11608337B2, “Heterocyclic compounds as immunomodulators” (Incyte Corporation, priority 2016, dated 2023)
